Measurements: article PMC11589570, “Critical assessment of LC3/GABARAP ligands used for degrader development and ligandability of LC3/GABARAP binding pockets” (Nature Communications, 2024)
Values joined by “and” are separate entries in the source; they are usually repeats but may differ in a detail not shown here. Equal entries are not always repeated.

Columns and labels:
U2OS cells = assay: Cell growth assay (IncuCyte confluence over 72 h); format: cell-based; set-up: key to U2OS cell growth: % of well area covered by cells (confluence)
Method in brief: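 U2OS cells were grown in DMEM with 10% FBS for 24 h before treatment. Confluence was then tracked by IncuCyte phase imaging over 72 h and expressed as % of well area covered by cells. Each point is the average of three wells.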

[1] = test system: RPE-1 GFP-LC3B-RPF-LC3∆G reporter cell line; assay: Autophagy flux assay; format: cell-based; conditions: rebuttal letter
LC3A = LC3A (Homo sapiens, UniProt Q9H492); assay: Isothermal titration calorimetry (ITC); format: binding; conditions: LC3A
RPE1 cells = assay: Cell growth assay (IncuCyte confluence over 72 h); format: cell-based; conditions: listed as 10O5
Method in brief: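 Phase confluence (% area covered by cells) imaged every 2 h for 72 h after compound addition; cells in DMEM/10% FBS, seeded 24 h before treatment. Controls were 0.1% DMSO, 250 nM Torin1 and 200 ng/mL Bafilomycin (final). Each point averages three wells.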

**Q.** Which results are given for O=C1Nc2ccc(I)cc2C1=Cc1cc(Br)c(O)c(Br)c1 [compound 4]?
**A.** U2OS cell growth (U2OS cells; 100 nM, time 0 h, listed as 10O5): 16.9992 and 15.7304 and 22.471; U2OS cell growth (U2OS cells; 100 nM, time 2 h, listed as 10O5): 30.0536 and 23.3693 and 30.9556; U2OS cell growth (U2OS cells; 100 nM, time 4 h, listed as 10O5): 26.8783 and 18.0548 and 26.389; U2OS cell growth (U2OS cells; 100 nM, time 6 h, listed as 10O5): 32.427 and 24.5344 and 29.4691; U2OS cell growth (U2OS cells; 500 nM, time 0 h, listed as 10O5): 22.1626 and 25.7214 and 24.1436; U2OS cell growth (U2OS cells; 500 nM, time 2 h, listed as 10O5): 30.4879 and 29.4429 and 31.5602; U2OS cell growth (U2OS cells; 500 nM, time 4 h, listed as 10O5): 27.0048 and 26.6361 and 29.202; U2OS cell growth (U2OS cells; 500 nM, time 6 h, listed as 10O5): 26.7875 and 33.8054 and 33.8287; U2OS cell growth (U2OS cells; 500 nM, time 8 h): 33.7413; U2OS cell growth (U2OS cells; 500 nM, time 10 h): 39.0222; U2OS cell growth (U2OS cells; 1 uM, time 0 h, listed as 10O5): 28.8978 and 24.3384 and 24.2638; U2OS cell growth (U2OS cells; 1 uM, time 2 h, listed as 10O5): 33.9341 and 25.1214 and 23.3142; U2OS cell growth (U2OS cells; 1 uM, time 4 h, listed as 10O5): 34.8975 and 25.1189 and 23.4121; U2OS cell growth (U2OS cells; 1 uM, time 6 h, listed as 10O5): 36.2035 and 30.6761 and 30.4629; U2OS cell growth (U2OS cells; 1 uM, time 8 h, listed as 10O5): 37.0589 and 28.0551 and 29.5538; U2OS cell growth (U2OS cells; 1 uM, time 10 h, listed as 10O5): 40.6527 and 32.3336 and 34.2928; U2OS cell growth (U2OS cells; 1 uM, time 12 h, listed as 10O5): 39.0418; U2OS cell growth (U2OS cells; 3 uM, time 0 h, listed as 10O5): 28.8395 and 29.1487 and 34.5356; U2OS cell growth (U2OS cells; 3 uM, time 2 h, listed as 10O5): 33.8786 and 32.6567 and 36.3335; U2OS cell growth (U2OS cells; 3 uM, time 4 h, listed as 10O5): 28.2335 and 26.3394 and 40.569; U2OS cell growth (U2OS cells; 3 uM, time 6 h, listed as 10O5): 37.1398 and 33.8156 and 39.1483; U2OS cell growth (U2OS cells; 3 uM, time 8 h, listed as 10O5): 34.9068 and 36.3207 and 39.5562; U2OS cell growth (U2OS cells; 3 uM, time 10 h, listed as 10O5): 41.312 and 42.3386 and 42.5694; U2OS cell growth (U2OS cells; 3 uM, time 12 h, listed as 10O5): 40.1427; U2OS cell growth (U2OS cells; 5 uM, time 0 h, listed as 10O5): 31.0558 and 26.3625 and 29.5321; U2OS cell growth (U2OS cells; 5 uM, time 2 h, listed as 10O5): 36.0354 and 28.3396 and 34.1005; U2OS cell growth (U2OS cells; 5 uM, time 4 h, listed as 10O5): 37.417 and 32.4374 and 40.4577; U2OS cell growth (U2OS cells; 5 uM, time 6 h, listed as 10O5): 38.4528 and 33.2156 and 39.1806; U2OS cell growth (U2OS cells; 5 uM, time 8 h, listed as 10O5): 37.3748 and 33.0274 and 39.2246; U2OS cell growth (U2OS cells; 5 uM, time 10 h, listed as 10O5): 41.1433 and 35.6497 and 45.4152; U2OS cell growth (U2OS cells; 10 uM, time 0 h, listed as 10O5): 20.3118 and 28.5412 and 26.4263; U2OS cell growth (U2OS cells; 10 uM, time 2 h, listed as 10O5): 23.006 and 27.9929 and 32.8968; U2OS cell growth (U2OS cells; 10 uM, time 4 h, listed as 10O5): 30.6648 and 35.9437 and 41.1141; U2OS cell growth (U2OS cells; 10 uM, time 6 h, listed as 10O5): 29.7401 and 38.8973 and 43.1309; U2OS cell growth (U2OS cells; 10 uM, time 8 h, listed as 10O5): 28.0658 and 36.5966 and 41.861; U2OS cell growth (U2OS cells; 10 uM, time 10 h, listed as 10O5): 30.9876 and 40.5217 and 49.4843; autophagy induction (autophagy flux) [1]: did not induce autophagy; effects on cell growth (Incucyte life cell imaging) [1]: No induction of autophagy or effects; outcome of ITC titration (LC3A): low solubility in the buffer system; outcome of ITC titration (LC3A; listed as 10O5): induced protein precipitation; RPE1 cell growth (RPE1 cells; 100 nM, 0 h): 16 and 14; RPE1 cell growth (RPE1 cells; 100 nM, 2 h): 20 and 13 and 18; RPE1 cell growth (RPE1 cells; 100 nM, 4 h): 23 and 14 and 19; RPE1 cell growth (RPE1 cells; 100 nM, 6 h): 26 and 14 and 18; RPE1 cell growth (RPE1 cells; 100 nM, 8 h): 27 and 16 and 19; RPE1 cell growth (RPE1 cells; 100 nM, 10 h): 28 and 17 and 21; RPE1 cell growth (RPE1 cells; 500 nM, 0 h): 20 and 18 and 16; RPE1 cell growth (RPE1 cells; 500 nM, 2 h): 24 and 18; RPE1 cell growth (RPE1 cells; 500 nM, 4 h): 27 and 19; RPE1 cell growth (RPE1 cells; 500 nM, 6 h): 29 and 20 and 19; RPE1 cell growth (RPE1 cells; 500 nM, 8 h): 32 and 21 and 20; RPE1 cell growth (RPE1 cells; 500 nM, 10 h): 35 and 22; RPE1 cell growth (RPE1 cells; 1 uM, 0 h): 15 and 13 and 19; RPE1 cell growth (RPE1 cells; 1 uM, 2 h): 18 and 17; RPE1 cell growth (RPE1 cells; 1 uM, 4 h): 20 and 18; RPE1 cell growth (RPE1 cells; 1 uM, 6 h): 21 and 24 and 20; RPE1 cell growth (RPE1 cells; 1 uM, 8 h): 21 and 25 and 22; RPE1 cell growth (RPE1 cells; 1 uM, 10 h): 23 and 26 and 22; RPE1 cell growth (RPE1 cells; 1 uM, 12 h): 25; RPE1 cell growth (RPE1 cells; 3 uM, 0 h): 13 and 19 and 16; RPE1 cell growth (RPE1 cells; 3 uM, 2 h): 17 and 19; RPE1 cell growth (RPE1 cells; 3 uM, 4 h): 20 and 18; RPE1 cell growth (RPE1 cells; 3 uM, 6 h): 23 and 21 and 19; RPE1 cell growth (RPE1 cells; 3 uM, 8 h): 26 and 20 and 19; RPE1 cell growth (RPE1 cells; 3 uM, 10 h): 27 and 24 and 21; RPE1 cell growth (RPE1 cells; 3 uM, 12 h): 30 and 23; RPE1 cell growth (RPE1 cells; 5 uM, 0 h): 16 and 15 and 17; RPE1 cell growth (RPE1 cells; 5 uM, 2 h): 20 and 16 and 19; RPE1 cell growth (RPE1 cells; 5 uM, 4 h): 21 and 17; RPE1 cell growth (RPE1 cells; 5 uM, 6 h): 24 and 17 and 20; RPE1 cell growth (RPE1 cells; 5 uM, 8 h): 29 and 19 and 21; RPE1 cell growth (RPE1 cells; 5 uM, 10 h): 28 and 19 and 23; RPE1 cell growth (RPE1 cells; 10 uM, 0 h): 16 and 21 and 17; RPE1 cell growth (RPE1 cells; 10 uM, 2 h): 22 and 20; RPE1 cell growth (RPE1 cells; 10 uM, 4 h): 25 and 21 and 22; RPE1 cell growth (RPE1 cells; 10 uM, 6 h): 29 and 22; RPE1 cell growth (RPE1 cells; 10 uM, 8 h): 30 and 26 and 23; RPE1 cell growth (RPE1 cells; 10 uM, 10 h): 31 and 28 and 24
